Consider one compound from patent US20100021940A1, “Method for Determining the Activity of a Protease in a Sample” (ASTRAZENECA AB, priority 2006, published 2010).

What all share (test): Activity of purified MMP on substrate (reporter release)
One experiment has as its system MMP14. It counts as biochemical, human. The note with it: 30 μM substrate; MMP Conc. 4.8 nM; AZL0078. From the text: (§1) In order to confirm the specificity of the substrates for various MMPs, standard enzymatic assays were adapted to monitor the release of reporter. The reporter was either analysed by a LC-MS method as described in Example 3a, or by a LC-UV method as described in Example 4.
Recombinant human MMP14 catalytic domain may be expressed and purified as described by Parkar A. A. et al, (2000), Protein Expression and Purification, 20, 152. The purified enzyme can be used to monitor activity of substrates as follows: MMP14 (10 ng/ml final […]) in assay buffer (0.1M “Tris-HCl” (trade mark) buffer, pH 7.5 containing 0.1M NaCl, 20 mM CaCl2, 0.020 mM ZnCl and 0.05% (w/v) “Brij 35” (trade mark) detergent) in the presence or absence of inhibitors. Activity is determined by measuring the release of reporter 4-nitroaniline by the using the method in Example 3a.

The target in the next experiment is T1, MMP1 (Homo sapiens, UniProt P03956).
T1 sequence (P03956 100-469): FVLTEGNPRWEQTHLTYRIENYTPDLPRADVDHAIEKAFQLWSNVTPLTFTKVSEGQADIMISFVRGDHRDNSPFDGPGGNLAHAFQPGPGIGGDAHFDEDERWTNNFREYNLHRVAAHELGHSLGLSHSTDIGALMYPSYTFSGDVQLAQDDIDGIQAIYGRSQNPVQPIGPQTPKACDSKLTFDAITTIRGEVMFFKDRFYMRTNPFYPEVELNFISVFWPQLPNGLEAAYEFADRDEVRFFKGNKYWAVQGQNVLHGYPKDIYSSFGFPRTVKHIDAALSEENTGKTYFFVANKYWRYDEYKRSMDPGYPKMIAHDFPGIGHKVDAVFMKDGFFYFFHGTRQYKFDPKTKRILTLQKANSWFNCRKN
It counts as biochemical. From the text: (§2) In order to confirm the specificity of the substrates for various MMPs, standard enzymatic assays were adapted to monitor the release of reporter. The reporter was either analysed by a LC-MS method as described in Example 3a, or by a LC-UV method as described in Example 4. A protocol for testing against other matrix metalloproteinases, including MMP9, using expressed and purified pro MMP is described, for instance, by C.

A further experiment has as its target MMP3 (Homo sapiens, UniProt P08254). Type of experiment: biochemical.
Source text: as §2

In another experiment the test system is MMP9. Type of experiment: biochemical, human. An excerpt: In order to confirm the specificity of the substrates for various MMPs, standard enzymatic assays were adapted to monitor the release of reporter. The reporter was either analysed by a LC-MS method as described in Example 3a, or by a LC-UV method as described in Example 4. […] The enzyme can be used to monitor activity of substrates as follows: […]

The target of a further experiment is T2, MMP8 (Homo sapiens, UniProt P22894).
T2 construct: purchased Calbiochem
It counts as biochemical. The method, then: In order to confirm the specificity of the substrates for various MMPs, standard enzymatic assays were adapted to monitor the release of reporter. The reporter was either analysed by a LC-MS method as described in Example 3a, or by a LC-UV method as described in Example 4. Purified pro-MMP8 is purchased from Calbiochem. The enzyme (at 10 μg/ml) is activated by p-amino-phenyl-mercuric acetate (APMA) at 1 mM for 2.5 h, 35° C. The activated enzyme can be used to monitor activity of substrates as follows: MMP8 (200 ng/ml final concentration) is incubated for 90 minutes at 35° C.

Another experiment concerns MMP19. It counts as biochemical, human. The following applies: 30 μM substrate; MMP Conc. 19 nM; AZL0095.
Source text: as §1
Recombinant human MMP19 catalytic domain may be expressed and purified as described by Parkar A. A. et al, (2000), Protein Expression and Purification, 20:152. The purified enzyme can be used to monitor activity of substrates as follows: MMP19 (40 ng/ml […]) in assay buffer (0.1M “Tris-HCl” (trade mark) buffer, pH 7.3 containing 0.1M NaCl, 20 mM CaCl2, 0.020 mM ZnCl and 0.05% (w/v) “Brij 35” (trade mark) detergent) in the presence or absence of inhibitors. Activity is determined by measuring the release of reporter 4-nitroaniline by the using the method in Example 3a.

Another experiment concerns the target MMP16 (Homo sapiens, UniProt P51512). It counts as biochemical. The following applies: 30 μM substrate; MMP Conc. 4.3 nM; Calbiochem #475939.
Source text: as §1
(§3) A protocol for testing against other matrix metalloproteinases, including MMP9, using expressed and purified pro MMP is described, for instance, by C. Graham Knight et al., (1992) FEBS Lett., 296(3), 263-266.

A further experiment deals with T3, MMP2 (Homo sapiens, UniProt P08253).
T3 sequence (P08253 110-660): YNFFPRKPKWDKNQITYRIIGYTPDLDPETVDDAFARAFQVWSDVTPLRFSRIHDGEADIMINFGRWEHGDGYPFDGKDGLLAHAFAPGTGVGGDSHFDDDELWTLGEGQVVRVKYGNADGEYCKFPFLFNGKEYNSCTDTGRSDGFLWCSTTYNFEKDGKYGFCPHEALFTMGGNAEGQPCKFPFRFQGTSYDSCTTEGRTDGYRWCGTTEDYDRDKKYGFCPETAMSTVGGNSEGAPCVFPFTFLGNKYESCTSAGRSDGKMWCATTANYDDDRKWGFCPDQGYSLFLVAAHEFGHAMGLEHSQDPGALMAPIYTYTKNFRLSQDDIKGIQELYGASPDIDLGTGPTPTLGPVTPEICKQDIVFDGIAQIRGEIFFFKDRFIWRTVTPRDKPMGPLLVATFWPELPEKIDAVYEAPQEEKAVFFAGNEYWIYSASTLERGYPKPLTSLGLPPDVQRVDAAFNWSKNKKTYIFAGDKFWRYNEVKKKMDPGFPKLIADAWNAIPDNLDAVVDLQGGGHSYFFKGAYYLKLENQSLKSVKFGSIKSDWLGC
It counts as biochemical. The note with it: 30 μM substrate; MMP Conc. 0.71 nM; Chemicon #CC071.
Source text: as §1, §3

Another experiment concerns the target MMP13 (Homo sapiens, UniProt P45452). It counts as biochemical. The note with it: 30 μM substrate; MMP Conc. 1.2 nM; AZAP0.5 mg/ml.
Source text: as §1, §3

Sequence of MMP3 (P08254 100-477): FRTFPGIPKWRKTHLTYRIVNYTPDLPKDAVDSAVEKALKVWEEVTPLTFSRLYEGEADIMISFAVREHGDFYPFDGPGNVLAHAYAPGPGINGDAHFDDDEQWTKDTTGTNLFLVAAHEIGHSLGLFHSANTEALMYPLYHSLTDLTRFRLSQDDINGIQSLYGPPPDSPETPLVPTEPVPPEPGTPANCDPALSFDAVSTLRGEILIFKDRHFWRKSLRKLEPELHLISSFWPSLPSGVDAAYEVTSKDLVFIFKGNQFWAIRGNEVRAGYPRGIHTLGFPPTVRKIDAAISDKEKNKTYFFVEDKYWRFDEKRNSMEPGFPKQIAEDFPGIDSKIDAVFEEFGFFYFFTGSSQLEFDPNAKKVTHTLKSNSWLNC
T2 sequence (P22894 101-467): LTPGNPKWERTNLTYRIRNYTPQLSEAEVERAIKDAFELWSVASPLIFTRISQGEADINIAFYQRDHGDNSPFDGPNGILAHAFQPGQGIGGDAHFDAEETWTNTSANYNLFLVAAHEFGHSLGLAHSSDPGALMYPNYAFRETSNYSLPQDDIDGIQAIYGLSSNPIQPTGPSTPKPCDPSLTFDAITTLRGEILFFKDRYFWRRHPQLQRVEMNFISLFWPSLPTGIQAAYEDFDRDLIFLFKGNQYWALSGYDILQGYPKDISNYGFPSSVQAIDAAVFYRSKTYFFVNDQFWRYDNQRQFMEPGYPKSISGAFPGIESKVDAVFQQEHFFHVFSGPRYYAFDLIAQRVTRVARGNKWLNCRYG
Sequence of MMP16 (P51512 120-607): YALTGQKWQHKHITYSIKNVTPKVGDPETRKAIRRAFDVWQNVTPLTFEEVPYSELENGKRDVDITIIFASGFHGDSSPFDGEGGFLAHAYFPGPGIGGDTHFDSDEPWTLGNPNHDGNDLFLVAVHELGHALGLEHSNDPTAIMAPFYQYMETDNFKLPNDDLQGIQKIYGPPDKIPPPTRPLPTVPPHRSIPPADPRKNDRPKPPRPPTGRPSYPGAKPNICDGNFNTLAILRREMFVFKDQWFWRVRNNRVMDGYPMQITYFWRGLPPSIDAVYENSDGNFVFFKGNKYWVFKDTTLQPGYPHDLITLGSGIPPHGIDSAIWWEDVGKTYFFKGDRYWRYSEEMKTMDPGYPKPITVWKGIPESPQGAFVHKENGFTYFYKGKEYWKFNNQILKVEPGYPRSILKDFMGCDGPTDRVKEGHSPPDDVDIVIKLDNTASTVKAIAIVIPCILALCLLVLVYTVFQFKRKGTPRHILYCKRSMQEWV

Consider `COC(=O)CCNC(=O)[C@H](CC(C)C)NC(=O)[C@@H](NC(=O)CNC(=O)[C@H](CC(C)C)NC(=O)[C@@H]1CCCN1C(C)=O)Nc1ccc([N+](=O)[O-])cc1` [Example 1.1, Methyl 1-acetyl-L-prolyl-L-leucylglycyl-α-R-(4-nitrophenylamino)-glycyl-L-leucyl-β-alaninate], for which the Activity in the experiment on MMP14 is reported as 1.0 units/s; on MMP1 (30 μM substrate, MMP Conc. 9.3 nM, Calbiochem #444208) it was 0.16 units/s; on MMP3 (30 μM substrate, MMP Conc. 19 nM, AZL0095), 0.048 units/s; in the experiment with MMP9 (30 μM substrate, MMP Conc. 0.27 nM, AZL0064), 7.4 units/s; on MMP8 (30 μM substrate, MMP Conc. 2.7 nM, Calbiochem #444229), 1.1 units/s; with MMP19, 0.13 units/s. For the same compound, the figures for the Activity on MMP16, on MMP2 and on MMP13 were 1.4 units/s, 2.3 units/s and 1.9 units/s, respectively. Besides, the “Activity of selected substrates with MMPs” value on MMP1 (Table 1b, MMP1) is 26.1 units/s (molRXH/molEnz * s); on MMP3 (Table 1b, MMP3), 3.8 units/s (molRXH/molEnz * s); in the experiment with MMP9 (Table 1b, MMP9), 62.9 units/s (molRXH/molEnz * s); on MMP8 (Table 1b, MMP8) it was 120.4 units/s (molRXH/molEnz * s).
